Reference: article PMC13147323, “EGFR-Targeted and MMP-Activated Membranolytic Peptides Kill Cancer Cells Specifically In Vitro and Reduce Tumor Growth In Vivo” (Molecular Pharmaceutics, 2026)
Entries after “also recorded” stand apart in the source; their conditions may differ. Structures can show the parent of a compound that is named as a salt. Residues, ends and D or L forms follow the SMILES beside them.

Assays:
HB2 cells = format: cell-based, human; details: 24 h
Description: (§1) MDA-MB-468, MDA-MB-231, BT-474, AU-565, HB2, and MCF-10A cells were procured from American Type Culture Collection (ATCC) and validated for lack of mycoplasma contamination (MycoAlert; Lonza, Basel, Switzerland) and identity (short tandem repeat profiling; Source Bioscience, Nottingham, UK). Cells (except MCF-10A) were cultured in Dulbecco’s modified Eagle medium (DMEM) supplemented with 10% (v/v) fetal calf serum (FCS) and 100 units/mL penicillin–streptomycin (Thermo Scientific; Waltham, MA, USA). MCF-10A was cultured in DMEM supplemented with 5% horse serum, 0.1 μg/mL cholera toxin, 0.5 μg/mL hydrocortisone, 0.02 μg/mL epidermal growth factor, and 100 units/mL penicillin–streptomycin (Thermo Scientific, Waltham, MA, USA). Cells were grown at 37 °C in a humidified incubator with 5% CO2. Cells were maintained and experiments were performed under conditions ensuring cell densities that supported exponential growth.
(§2) Cells were seeded in 96-well plates at 1 × 10^4 cells/well in complete growth media and incubated for 18 h. Cells were then treated with peptides (0–250 μM) for up to 24 h. Cells were then incubated with 0.5 mg/mL MTT dissolved in PBS for 3 h. Formazan crystals were dissolved using […] of isopropanol and absorbance was measured at 570 nm on a microplate spectrophotometer (Biotech Instruments, USA). For spheroids assays, MDA-MB-468 or HB2 cells (1000 cells/well) were seeded in 250 μL of DMEM supplemented with 10% FCS and 2.5% Matrigel (Corning, New York, USA) in low-adherent, round-bottom 96-well plates (Corning, New York, USA). The plates were centrifuged at 360g for 10 min and subsequently incubated for 48 h to allow spheroid formation. MDA-MB-468 or HB2 spheroids were then treated with peptides at the IC50 doses determined for MDA-MB-468 cells for 24 h. Cellular viability within spheroids was assessed by staining with Hoechst 33342 (5 μg/mL) for 30 min, followed by propidium iodide (PI) (1.5 μg/mL) for 10 min. Red fluorescence indicated nonviable cells stained with PI, whereas blue fluorescence represented both viable and nonviable cells stained with Hoechst 33342. The survival of spheroids was determined by calculating ratios of blue/red fluorescence using ImageJ software.
(§3) A panel of human breast epithelial cell lines was established, including two lines from a nontransformed origin (MCF-10A; HB2) and four cancer lines (BT-474; AU-565; MDA-MB-231; MDA-MB-468). Cells were treated with different doses of MP1 or the modified peptides. Survival was assessed relative to untreated using MTT assays (Figures and S2) and IC50 doses were determined for each peptide in each cell line.

MDA-MB-468 cells [1] = format: cell-based, human; details: 24 h
Description: as §1, §2, §3

red blood cells = assay: Ex vivo hemolysis assay; format: cell-based; details: mouse RBCs 1:50 in PBS, 1 h, 37 °C, absorbance 540 nm
Description: Blood was collected from five 10-week-old male C57BL/6 mice via cardiac puncture following cervical dislocation, using pediatric blood collection tubes containing K3 EDTA (Greiner; Slušovice, Czechia). Blood was centrifuged (500g; 5 min; 4 °C) and plasma was removed. Red blood cells (RBCs) were resuspended to their original volume using 150 mM NaCl. RBCs were repeatedly washed and diluted to 1:50 in PBS. For a positive control, 1% (v/v) Triton X-100 was used (100% lysis), while cells incubated in PBS served as a negative control (0% lysis). 200 μL of RBCs in triplicate was treated with peptides and incubated on an orbital shaker (100 rpm; 1 h; 37 °C). Samples were centrifuged (500g; 5 min) and supernatants, containing lysed RBCs, were collected. Hemolysis was quantified by measuring absorbance at 540 nm.
Our next aim was to assess whether our various peptides had potential as anticancer therapeutics using an in vivo model. To our knowledge, MP1 or MP1-derived peptides have not previously been used experimentally in vivo, therefore we first performed an in vitro hemolysis assay to aid selection of peptides that could be suitable for intravenous delivery. Red blood cells were isolated from mouse blood and treated with three different doses of MP1 wildtype or our targeted peptides (EGFR and EGFR-MMP versions of both MP1 and D2K) and hemolysis was measured (Figure A).

MCF-10A cells = format: cell-based, human; details: 24 h
Description: as §1, §2, §3

MDA-MB-231 cells = format: cell-based, human; details: 24 h
Description: as §1, §2, §3

BT-474 cells = format: cell-based, human; details: 24 h
Description: as §1, §2, §3

AU-565 cells = format: cell-based, human; details: 24 h
Description: as §1, §2, §3

MDA-MB-468 cells [2] = assay: MTT survival with or without MMP-2 inhibitor, MDA-MB-468; format: cell-based, human; details: MDA-MB-468, MTT, 24 h; 20 μM EGFR-MP1, 30 μM EGFR-MMP-MP1 or 2 μM chlorhexidine dihydrochloride alone
Description: Cells were seeded in 6-well plates at 3 × 10^5 in complete medium and allowed to grow for 48 h. 500 μL of cell media from each cell line was collected and centrifuged at 5000 rpm for 15 min at 4 °C. Supernatants were collected and 50 μL of each was added in 3 replicate wells of a monoclonal mouse antihuman MMP-2 antibody precoated 96-well ELISA plate (Human Total MMP-2 kit; BioLegend, USA). It was then mixed with the respective assay buffers as per the kit instruction. The plate was then sealed and incubated at room temperature (2 h). The supernatant sample was then discarded and the wells were washed with assay buffer several times. Next, 100 μL of Human Total MMP-2 Detection Antibody solution was added into the wells and incubated (1 h). 100 μL of Avidin-HRP solution was then added for 1 h, and finally, after washing, 100 μL of substrate solution was added. Absorbance was measured at 450 nm (Biotech Instruments, USA). The final MMP-2 concentration was calculated against a standard curve. […]
We were also interested to test formally whether the efficacy of EGFR-MMP-MP1 was dependent on MMP-2 activity. Therefore, we treated MDA-MB-468 cells with EGFR-MMP-MP1 or with EGFR-MP1, in the presence or absence of the MMP-2 inhibitor chlorhexidine dihydrochloride, and assessed cell survival relative to untreated (Figure C,D).

| SMILES | IC50 (HB2 cells) | IC50 (MDA-MB-468 cells [1]) | hemolysis (red blood cells; 50 μM peptide, 1% Triton X-100 = 100%) | IC50 (MCF-10A cells) | IC50 (MDA-MB-231 cells) | IC50 (BT-474 cells) | IC50 (AU-565 cells) | hemolysis (in words) (red blood cells; three doses) | cell survival relative to untreated, single agent (MDA-MB-468 cells [2]) |
| --- | --- | --- | --- | --- | --- | --- | --- | --- | --- |
| CC[C@H](C)[C@H](N)C(=O)N[C@@H](CCCCN)C(=O)N[C@@H](Cc1c[nH]c2ccccc12)C(=O)N[C@@H](CCCCN)C(=O)N[C@@H](CCCCN)C(=O)N[C@@H](CC(C)C)C(=O)N[C@@H](CC(C)C)C(=O)N[C@@H](CC(=O)O)C(=O)N[C@@H](C)C(=O)N[C@@H](C)C(=O)N[C@@H](CCCCN)C(=O)N[C@@H](CCC(N)=O)C(=O)N[C@H](C(=O)N[C@@H](CC(C)C)C(=O)NCC(=O)NCC(=O)N[C@@H](Cc1ccc(O)cc1)C(=O)N[C@@H](Cc1c[nH]cn1)C(=O)N[C@@H](Cc1c[nH]c2ccccc12)C(=O)N[C@@H](Cc1ccc(O)cc1)C(=O)NCC(=O)N[C@@H](Cc1ccc(O)cc1)C(=O)N[C@H](C(=O)N1CCC[C@H]1C(=O)N[C@@H](CCC(=O)O)C(=O)N[C@@H](CC(N)=O)C(=O)N[C@H](C(=O)N[C@H](C(=O)O)[C@@H](C)CC)C(C)C)[C@@H](C)O)[C@@H](C)CC [EGFR-D2K] (H-IKWKKLLDAAKQILGGYHWYGYTPENVI-OH) | 50.5 µM | 27.2 µM | – | – | – | – | – | – | – |
| CC[C@H](C)[C@H](N)C(=O)N[C@@H](CCCCN)C(=O)N[C@@H](Cc1c[nH]c2ccccc12)C(=O)N[C@@H](CCCCN)C(=O)N[C@@H](CCCCN)C(=O)N[C@@H](CC(C)C)C(=O)N[C@@H](CC(C)C)C(=O)N[C@@H](CC(=O)O)C(=O)N[C@@H](C)C(=O)N[C@@H](C)C(=O)N[C@@H](CCCCN)C(=O)N[C@@H](CCC(N)=O)C(=O)N[C@H](C(=O)N[C@@H](CC(C)C)C(=O)NCC(=O)N1CCC[C@H]1C(=O)N[C@@H](CC(C)C)C(=O)NCC(=O)N[C@H](C(=O)N[C@@H](C)C(=O)NCC(=O)N[C@@H](CCC(N)=O)C(=O)N[C@@H](Cc1ccc(O)cc1)C(=O)N[C@@H](Cc1c[nH]cn1)C(=O)N[C@@H](Cc1c[nH]c2ccccc12)C(=O)N[C@@H](Cc1ccc(O)cc1)C(=O)NCC(=O)N[C@@H](Cc1ccc(O)cc1)C(=O)N[C@H](C(=O)N1CCC[C@H]1C(=O)N[C@@H](CCC(=O)O)C(=O)N[C@@H](CC(N)=O)C(=O)N[C@H](C(=O)N[C@H](C(=O)O)[C@@H](C)CC)C(C)C)[C@@H](C)O)[C@@H](C)CC)[C@@H](C)CC [EGFR-MMP-D2K] (H-IKWKKLLDAAKQILGPLGIAGQYHWYGYTPENVI-OH) | 79.8 µM | 32.1 µM | 5.9% | – | – | – | – | – | – |
| CC[C@H](C)[C@H](N)C(=O)N[C@@H](CC(=O)O)C(=O)N[C@@H](Cc1c[nH]c2ccccc12)C(=O)N[C@@H](CCCCN)C(=O)N[C@@H](CCCCN)C(=O)N[C@@H](CC(C)C)C(=O)N[C@@H](CC(C)C)C(=O)N[C@@H](CC(=O)O)C(=O)N[C@@H](C)C(=O)N[C@@H](C)C(=O)N[C@@H](CCCCN)C(=O)N[C@@H](CCC(N)=O)C(=O)N[C@H](C(=O)N[C@@H](CC(C)C)C(=O)NCC(=O)NCC(=O)N[C@@H](Cc1ccc(O)cc1)C(=O)N[C@@H](Cc1c[nH]cn1)C(=O)N[C@@H](Cc1c[nH]c2ccccc12)C(=O)N[C@@H](Cc1ccc(O)cc1)C(=O)NCC(=O)N[C@@H](Cc1ccc(O)cc1)C(=O)N[C@H](C(=O)N1CCC[C@H]1C(=O)N[C@@H](CCC(=O)O)C(=O)N[C@@H](CC(N)=O)C(=O)N[C@H](C(=O)N[C@H](C(=O)O)[C@@H](C)CC)C(C)C)[C@@H](C)O)[C@@H](C)CC [EGFR-MP1] (H-IDWKKLLDAAKQILGGYHWYGYTPENVI-OH) | 71.4 µM | 39.6 µM | – | 93.4 µM | 39.3 µM | 98.3 µM | 91.4 µM | – | – |
| CC[C@H](C)[C@H](N)C(=O)N[C@@H](CC(=O)O)C(=O)N[C@@H](Cc1c[nH]c2ccccc12)C(=O)N[C@@H](CCCCN)C(=O)N[C@@H](CCCCN)C(=O)N[C@@H](CC(C)C)C(=O)N[C@@H](CC(C)C)C(=O)N[C@@H](CC(=O)O)C(=O)N[C@@H](C)C(=O)N[C@@H](C)C(=O)N[C@@H](CCCCN)C(=O)N[C@@H](CCC(N)=O)C(=O)N[C@H](C(=O)N[C@@H](CC(C)C)C(=O)O)[C@@H](C)CC [MP1, reference compound] (H-IDWKKLLDAAKQIL-OH) | 31.5 µM | 23.4 µM | – | 111 µM | 35 µM | 50.6 µM | 18.7 µM | unacceptably high levels of hemolysis at all doses; also recorded: unacceptably high hemolytic activity | – |
| [H]/N=C(\N/C(=N/[H])NCCCCCCNC(=N)NC(=N)Nc1ccc(Cl)cc1)Nc1ccc(Cl)cc1 [chlorhexidine dihydrochloride] | – | – | – | – | – | – | – | – | small and nonsignificant decrease |
